Here are results for three molecules from patent publication US20040109903A1, “Method for extended storage of viable and pathogen-safe blood and blood components using carbon monoxide” (priority 2002, published 2004).

One series has as its system Yersinia Enterocolitica. The experiment in a line: Growth of inoculated Yersinia Enterocolitica in whole blood under different atmospheres. The series is classed as cell-based. As to conditions: room temperature, about 20 bacteria per ml inoculated, compared with air (FIG. 1). The procedure:
Freshly drawn whole blood was obtained from a human donor under sterile conditions, and stored in gas impermeable bags having a volume of at least 1.5 times that of the blood volume. The gas environment (or atmosphere) in the bag was then replaced by an atmosphere containing sterile CO by applying a low level vacuum with a water pump of 20 mm Hg. CO was immediately flushed through a 0.25 micron sterile filter. The bag was sealed and agitated for 15 minutes to allow equilibration. This procedure was repeated three times thereby exchanging the atmosphere in the bag and blood with CO. Saturation with carbon monoxide can be identified in hemoglobin in samples of the treated blood according to typical changes of the light absorption spectrum of the hemoglobin in the visible region by a shift from 577 nm (typical of oxy-hemoglobin) to 569 nm (typical of carbomonoxy-hemoglobin).
(§1) Control blood samples were packed under air in the same containers without any additional treatment allowing air transfer. In some experiments control of inert gas like nitrogen were used to exchange the air in the same manner as CO.
Whole blood or its factions were inoculated with pathogenic bacteria. Growth of the bacteria at room temperature was followed under different atmospheres (gas environments ). […]

For the next series, the system named is Bacilus cereus. The series is described as follows: Growth of inoculated Bacilus cereus in platelets stored as PRP. The series is classed as cell-based. As to conditions: 20-24° C., inoculated at 18 CFU/ml, compared with air (FIG. 2). The procedure:
(§2) PC fractions were identically prepared from CO pretreated or untreated blood by consecutive centrifugation in a sterile environment using blood bank conditions. Bicarbonate (4% of PC volume) is than added from a stock solution of 750 mM while agitation to yield a final bicarbonate concentration of 30 mM. […] Alternatively, rather than applying a vacuum, the containers were flushed for 10 min. with sterile CO while agitating the containers, which were then sealed. The containers were allowed to stay at room temperature of 20-24° C.PRP platelets were treated similarly.
(§3) Control blood samples were packed under air in the same containers without any additional treatment allowing air transfer. In some experiments control of inert gas like nitrogen were used to exchange the air in the same manner as CO. […]
(§4) For FIGS. 2-6, platelets were stored as PRP with agitation at room temperature (20-24° C.) in a blood bank rocking plane as for regular blood bank under air with gas exchange option (AIR); or sealed under nitrogen atmosphere (N2) or carbon monoxide atmosphere (CO). […] The amount of inoculated bacteria was adjusted to a range of 10-100 CFU/ml before inoculation, in which the exact final number of bacteria was been measured by plating the stock on suitable agar plates allowing growth and counting (the final initial counts are given in each case).

The next series has as its system E. coli (strain O 157). The experiment in a line: Growth of inoculated E. coli in platelets stored as PRP. The format is cell-based. As to conditions: 20-24° C., inoculated at 25 CFU/ml, compared with air (FIG. 3). The method, then: as §2, §3, §4
The test system of a further series is Pseudomonas aeraginosa. The experiment in a line: Growth of inoculated Pseudomonas aeraginosa in platelets stored as PRP. The series is classed as cell-based. As to conditions: 20-24° C., inoculated at 16 CFU/ml, compared with air (FIG. 4). The method, then: as §2, §3, §4
For a further series, the system named is Bulkholderia cepasea. The series is described as follows: Growth of inoculated Bulkholderia cepasea in platelets stored as PRP. The series is classed as cell-based. Particulars: 20-24° C., inoculated at 12 CFU/ml, compared with air (FIG. 5). The procedure:
as §2, §3, §4

Another series has as its system Staphilococcus aereus. The experiment in a line: Growth of inoculated Staphilococcus aereus in platelets stored as PRP. The series is classed as cell-based. As to conditions: 20-24° C., inoculated at 18 CFU/ml, compared with air (FIG. 6). The method, then:
as §2, §3, §4

The subject of series [1] is Salmonella thyphimurium. The experiment in a line: Growth of Salmonella thyphimurium in PRP or PC fractions. The series is classed as cell-based. Particulars: compared with air (FIG. 7). The procedure:
(§5) PC fractions were identically prepared from CO pretreated or untreated blood by consecutive centrifugation in a sterile environment using blood bank conditions. Bicarbonate (4% of PC volume) is than added from a stock solution of 750 mM while agitation to yield a final bicarbonate concentration of 30 mM. Next, the PC is treated with CO in a similar manner to whole blood. Alternatively, rather than applying a vacuum, the containers were flushed for 10 min. with sterile CO while agitating the containers, which were then sealed. The containers were allowed to stay at room temperature of 20-24° C.PRP platelets were treated similarly.
as §1
Whole blood or its factions were inoculated with pathogenic bacteria. Growth of the bacteria at room temperature was followed under different atmospheres (gas environments ). The blood fractions were platelets in plasma (PRP); concentrated platelets (PC) as currently stored in blood banks after removal of about three quarters of the plasma and the cell-free blood plasma. […]

Series [2] has as its system Salmonella thyphimurium. The series is described as follows: Growth of Salmonella thyphimurium in cells-free plasma. The format is cell-based. As to conditions: plasma alone as source of nutrition (FIG. 8). The text has this:
Whole blood or its factions were inoculated with pathogenic bacteria. Growth of the bacteria at room temperature was followed under different atmospheres (gas environments ). The blood fractions were platelets in plasma (PRP); concentrated platelets (PC) as currently stored in blood banks after removal of about three quarters of the plasma and the cell-free blood plasma.
FIG. 8 compares the growth of Salmonella thyphimurium in cells-free plasma under AIR, N2 and CO.

The test system of series [3] is platelets. The experiment in a line: Platelet viability: leakage of LDH from stored platelets. The format is cell-based, human. The procedure: as §5
The viability of the platelets under storage was tested in the form of PC because platelets are currently stored in this form, in order to be able to store and use the extra plasma in PRP separately. However, the PC environment lacks both red cells and plasma, such that platelets in this environment are more sensitive than in the PRP form to loss of viability. Without wishing to be limited to a single hypothesis, platelets in the form of PC may experience changes in pH, and therefore may lose the necessary pH neutrality of the environment. The viability of platelets stored as PC was investigated according to two parameters: drop of pH of the environment, and loss of membrane integrity of the cells themselves, leading to leakage of cellular proteins.
With regard to leakage of LDH, cell viability can also be evaluated according to membrane integrity. LDH (lactic dehydrogenase) is a stable enzyme which is normally active inside cells; when these cells have loss of membrane integrity, LDH is leaked outside the cells, such that higher levels of LDH activity are correlated with reduced platelet viability. The presence of LDH activity in platelet-free solution samples was measured in order to assess the viability of the platelet-containing fractions from which the samples were taken. […]

In series [4] the test system is platelets. The experiment in a line: Ability of stored platelets to aggregate upon activation by collagen (Plateletworks kit). The series is classed as cell-based, human. The procedure: An assessment of the potential of platelets to form aggregates upon activation by an agonist, preferably collagen, a typical physiological agonist, was performed, to determine the potential effect of carbon monoxide on this physiological function of platelets. The assay was performed as follows.
Fresh blood bank platelets, prepared as platelet concentrates (PC), were used. Each PC unit was divided. One part was stored without carbon monoxide treatment, which is the current method of preserving PC in blood banks. The other portion was sealed under carbon monoxide as previously described. Samples were preserved under sterile conditions at 20-23° C., while shaking gently. The ability of platelets to aggregate upon activation by collagen as an agonist was tested daily using a kit by Helena Laboratories (USA), called the Plateletworks kit. To allow platelet count and reduce anticoagulant activity, the PC was diluted 1:10 with the physiological buffer PBS pH 7.3. The whole individual platelets present were counted prior and after addition of the agonist, for this example collagen.
Therefore, the stored PC samples (control and stored under carbon monoxide) were tested for their ability to aggregate following two hours shaking under air after being removed from storage.

The next series concerns human body. As to conditions: cited from earlier work.
The test system of series [5] is platelets. Particulars: via binding to Guanylate Cyclase; Brune and Ullrich 1987; cited from earlier work.
Another series relates to bacteria. Particulars: upon photoactivation; Gambro BCT abstracts 2001; cited from earlier work.
The test system of series [6] is platelets. Particulars: autologous transfusions performed in primates; cited from earlier work.

With `[C-]#[O+]` [carbon monoxide], the “growth of inoculated Yersinia Enterocolitica in whole blood” value with Yersinia Enterocolitica was “completely inhibited”. In addition, in the series with Bacilus cereus, the “growth of Bacilus cereus in PRP” value was “significantly inhibited”. The “growth of E. coli (strain O 157) in PRP” value in the series with E. coli (strain O 157) is given as “significantly inhibited”. Also, the “growth of Pseudomonas aeraginosa in PRP” value in the series on Pseudomonas aeraginosa was “significantly inhibited”. In addition, the “growth of Bulkholderia cepasea in PRP” value in the series with Bulkholderia cepasea is reported as “eliminated”. Moreover, the “growth of Staphilococcus aereus in PRP” value in the series with Staphilococcus aereus was “significantly inhibited”. Also, in the series with Salmonella thyphimurium [1] (PC, count at time zero 32 CFU/ml), the “growth of Salmonella thyphimurium in PC” value was “inhibited”. Moreover, the “growth of Salmonella thyphimurium in PRP” value in the series on Salmonella thyphimurium [1] (PRP, count at time zero 16 CFU/ml) is on record as “significantly inhibited”. In addition, in the series on Salmonella thyphimurium [2], the “growth of Salmonella thyphimurium in cells-free plasma” value is reported as “inhibition of pathogen growth was maintained”. Moreover, in the series on platelets [3] (PC, air vs CO vs CO with sodium bicarbonate (FIG. 10)), the “LDH activity in the supernatant, a measure of leakage” value was “similar, high levels”. Moreover, the “viability of platelets in PC (LDH leakage)” value in the series on platelets [3] (PC, no additional bicarbonate, compared with air (FIG. 10)) was “lost much faster than stored in air”. Also, in the series with platelets [3] (PRP, compared with air, data not shown), the “leakage of LDH (LDH activity in supernatant), platelets stored as PRP” value is given as “equal or even somewhat lower than under air”. Also, the “ability to aggregate in response to collagen” value with platelets [4] (PC stored under carbon monoxide, carbon monoxide replaced by air) is “regained their ability to aggregate”. Besides, the “formation of aggregates upon exposure to collagen” value with platelets [4] (PC stored under carbon monoxide, tested immediately after being exposed to air) is “did not form aggregates”. Also, in the series with platelets [4] (PC, day 11, two hours shaking under air after storage, compared with same PC unit stored under air (FIGS. 11A-11C)), the “fraction of platelets able to form aggregates” value was “larger fraction”. In the series on human body (equivalent of 8 hours per day at 20 ppm), the “safety threshold or TLV, equivalent inhalation” value was 10^4 ppm/minute. The “safety threshold or TLV for the human body” value in the series with human body (inhalation of 8 hours per day of air containing the gas) is 20 ppm. The aggregation of platelets result with platelets [5] is on record as “can inhibit aggregation”.
With `N#N` [nitrogen, reference compound], the “growth of inoculated Yersinia Enterocolitica in whole blood” value in the series on Yersinia Enterocolitica is “completely inhibited”. Besides, the “growth of Bacilus cereus in PRP” value in the series with Bacilus cereus is listed as “little or no effect”. The “growth of E. coli (strain O 157) in PRP” value with E. coli (strain O 157) is “little or no effect”. Also, the “growth of Pseudomonas aeraginosa in PRP” value in the series on Pseudomonas aeraginosa is reported as “little or no effect”. The “growth of Bulkholderia cepasea in PRP” value with Bulkholderia cepasea is “little or no effect”. Also, the “growth of Staphilococcus aereus in PRP” value with Staphilococcus aereus was “little or no effect”.
For the molecule `Cc1cc2nc3c(=O)[nH]c(=O)nc-3n(C[C@H](O)[C@H](O)[C@H](O)CO)c2cc1C` [riboflavin], the “effectiveness for bacterial inactivation” value with bacteria is on record as “variable effectiveness”. Moreover, in the series on platelets [6], the platelet survival rates result is on record as “may even decrease platelet survival rates”.
